Experimental data reported in ChEMBL document CHEMBL1126725, “Enantioselectivity of cocaine recognition sites: binding of (1S)- and (1R)-2 beta-carbomethoxy-3 beta-(4-iodophenyl)tropane (beta-CIT) to monoamine transporters” (J Med Chem, 1993).

Tests used:
[1] = Tested for its ability to displace [125I]- (1R)-beta-CIT with rat cortical membranes
[2] = molecular target: Sodium-dependent serotonin transporter (Homo sapiens, UniProt P31645); experiment: Compounds binding ability to serotonin transporter was evaluated by displacing [3H]paroxetine in baboon brain; parameters: species or system Papio hamadryas
Sequence of Sodium-dependent serotonin transporter (P31645 whole entry): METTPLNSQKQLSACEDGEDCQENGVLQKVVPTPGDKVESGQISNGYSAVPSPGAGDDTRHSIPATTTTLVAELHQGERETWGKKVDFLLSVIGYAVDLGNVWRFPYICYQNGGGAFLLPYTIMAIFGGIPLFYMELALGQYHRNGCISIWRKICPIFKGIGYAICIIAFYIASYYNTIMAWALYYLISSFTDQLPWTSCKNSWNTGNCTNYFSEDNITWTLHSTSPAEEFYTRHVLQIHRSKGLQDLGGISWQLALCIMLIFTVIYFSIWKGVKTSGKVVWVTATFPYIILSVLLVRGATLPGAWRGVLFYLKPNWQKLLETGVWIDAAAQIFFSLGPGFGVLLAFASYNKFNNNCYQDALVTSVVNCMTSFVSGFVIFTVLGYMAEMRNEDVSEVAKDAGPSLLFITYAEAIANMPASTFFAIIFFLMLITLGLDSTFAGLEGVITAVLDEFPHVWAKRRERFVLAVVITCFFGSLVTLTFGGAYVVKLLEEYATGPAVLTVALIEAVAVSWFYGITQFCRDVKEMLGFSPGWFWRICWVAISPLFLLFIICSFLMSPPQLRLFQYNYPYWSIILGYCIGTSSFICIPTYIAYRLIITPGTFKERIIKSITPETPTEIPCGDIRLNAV

[3] = species on record: Rattus norvegicus; experiment: (§1) Tested for its ability to displace [125I]- (1R)-beta-CIT with rat striatal membranes; parameters: species or system Membrane; settings: Striatum
[4] = as §1; parameters: species or system Striatum, Membrane

## COC(=O)C1C2CC[C@H](C[C@@H]1c1ccc(I)cc1)N2C (stereo not given in full)
[1]
  IC50: 0.55 nM
[2]
  IC50: 3.8 nM
[3]
  IC50: 0.42 nM

## COC(=O)[C@@H]1C2CC[C@H](C[C@@H]1c1ccc(I)cc1)N2C
[1]
  IC50: 450 nM
[4]
  IC50: 5700 nM
